This is an account of results in patent publication US20260240842A1, “METHODS TO PREVENT THERAPY RESISTANCE IN MELANOMA VIA BLOCKING GENOMIC INSTABILITY” (THE REGENTS OF THE UNIVERSITY OF CALIFORNIA, priority 2022, published 2026).

For this assay, the system named is acquired MAPKi-resistant sub-lines (n=9) isogenic to the human BRAF^V600MUT and NRAS^Q61MUT parental cell lines. As to the kind of experiment: Long-term clonogenic growth of acquired MAPKi-resistant sub-lines. The class given is cell-based. To be noted: in combination with MAPKi, lower range of the concentrations tested. As for the experimental part: FIGS. 4A-4U. DNA-PKi and/or PARPi co-treatment prevents acquired MAPKi-resistance in human melanoma cell lines. FIGS. 4A to 4O: Long-term clonogenic growth of isogenic parental and acquired MAPKi-resistant BRAF^V600MUT (4A to 4H) or NRAS^Q61MUT (4I to 4O) human melanoma cell lines showing acquired-resistant colonies to BRAFi+MEKi (PLX4032 at 0.5 mM, AZD6244 at 0.5 mM in 4A and 4G; PLX4032 at 0.25 mM, AZD6244 at 0.25 mM in 4D; PLX4032 at 1 mM, AZD6244 at 1 mM in 4B, 4C, 4E, 4F and 4H) or MEKi (trametinib at 0.005 mM in I and 0.01 mM in 4J and 4N; trametinib at 0.1 mM in 4K, 4M and 4O) and their suppression by indicated co-treatments with DNA-PKi (NU7026) and/or PARPi (ABT888) at indicated concentrations. Top, representative cultures; bottom, quantifications over n=4 fields (mean±SD). Data representative of 2 to 4 independent repeats. […] Representative results of two independent experiments; quantification of n=4 fields (mean±SD). […] Left, representative cultures; right, quantifications over n=4 fields (mean±SD). […] Top, representative cultures; bottom, quantifications over n=4 fields (mean±SD). […]

The structures appear in SMILES notation.

In the case of `C[C@]1(c2nc3c(C(N)=O)cccc3[nH]2)CCCN1` [ABT888, veliparib], the “anti-clonogenic activity in acquired MAPKi-resistant sub-lines compared to isogenic parental lines” value was “no or reduced anti-clonogenic activity”. The entry for `O=c1cc(N2CCOCC2)oc2c1ccc1ccccc12` [NU7026] is “no or reduced anti-clonogenic activity”.
